# According to US20100047371A1, “COMPOSITIONS AND METHODS FOR ORAL CANCER CHEMOPREVENTION USING BERRY PREPARATIONS AND EXTRACTS” (priority 2006, published 2010):
# Tests used:
# [1] = test system: Human Oral Mucosa Explant Tissues; assay: Effect of final gel pH on anthocyanin uptake into human oral mucosa explant tissues; assay type: in vitro ADME; details: 10% w/w FBR gel; for Anthocyanin uptake, Gel pH 3.5, Avg. ± SEM / Anthocyanin uptake, Gel pH 6.5, Avg. ± SEM: average of eleven explant samples; for % change 3.5 to 6.5, Avg. ± SEM: average of explant samples
# Procedure: Anthocyanin content in sera, saliva, and tissue explants was evaluated by an HPLC-MS assay. The respective samples (sera, saliva or tissue homogenates) were dissolved in 90% solvent A (water plus 1% formic acid) and 10% solvent B (acetonitrile plus 1% formic acid) and then separated on a Symmetry C18 reversed-phase column and analyzed using a Waters 2695 gradient HPLC separation module equipped with a 996 photodiode-array (PDA) UV/visible absorbance detector (Milford, Mass.). The solvent system consisted of a step gradient from 90% A to 50% B over 15 minutes, and the absorption spectra were recorded from 200-800 nm with the inline PDA detector. Mass spectrometry was conducted on a quadrupole ion tunnel mass spectrometer equipped with a Z-spray ESI source. Explant protein levels were determined by the Lowry method, using bovine γ-globulin as the standard protein [Lippman et al., 1993]. Tissue explants, specifically human oral mucosal explants, were used to determine the in vitro effects of FBR content and pH on anthocyanin uptake. Human oral tissues for the tissue explant studies were obtained from consenting volunteers who were undergoing elective oral surgery procedures. To confirm “no pathologic diagnosis”, a portion of each of these tissues was submitted for light microscopic evaluation. […] Tissues for explant experiments were immediately placed in an artificial saliva transport medium, which also served as the incubation medium for the gel absorption studies. The composition of the artificial saliva used for tissue transport and incubation was (final concentrations): sodium carboxymethylcellulose (0.5%), sorbitol (165 mM), NaCl (14 mM), KCl (16 mM), calcium chloride dehydrate (1.0 mM), MgCl2 (0.63 mM), Trizma hydrochloride (2.0 mM). Tissues from eight donors were used for preliminary studies to compare the penetration of anthocyanins from the 5% berry gel and the 10% FBR gel, both at a final pH of 6.5. In order to account for heterogeneity among human donors, tissue samples were hemisected. One tissue portion treated with 5% and the other with 10% FBR gels. One gram of gel (containing either 5% or 10% w/w FBR) was placed on the epithelial surface of the explant, followed by gently rubbing of the site for 30 seconds to facilitate uptake. Explants were then placed into artificial saliva, incubated for 30 minutes (37° C., 5% CO2), and then frozen at −80° C. until HPLC-mass spectroscopy analyses as previously reported [Rodrigo et al., in press]. Tissue preparation for HPLC analyses consisted of homogenization of the entire oral mucosal specimen, removal of an aliquot for sample protein level determination, followed by the addition of collagenase type II (0.1 mg/mL, GIBCO, Grand Island, N.Y.) and 1% formic acid. Samples were then placed on a Sep Pack (Millipore, Billerica, Mass.), eluted with methanol, and dried under argon gas. Additional oral mucosal explant studies were conducted to compare the effect of FBR gel pH on absorption into oral mucosal explants. Tissues from eleven donors were used for these studies, and handling was as described above with the exception that all gels contained 10% w/w FBR and were formulated at a final pH of 3.5 or 6.5. […] Large differences (up to 15-fold) in detectable anthocyanin levels were found in the gel treated donor tissues; findings that likely reflect the extensive heterogeneity within human tissues that affects tissue penetrative abilities.
# [2] = Human pharmacokinetic study: anthocyanins in saliva and peripheral blood after topical gel application; assay type: in vivo; details: 1.0 g 5% FBR Gel, pH 6.5 topical to floor of mouth, saliva collected 2-5 min after application
# Procedure: Anthocyanin content in sera, saliva, and tissue explants was evaluated by an HPLC-MS assay. The respective samples (sera, saliva or tissue homogenates) were dissolved in 90% solvent A (water plus 1% formic acid) and 10% solvent B (acetonitrile plus 1% formic acid) and then separated on a Symmetry C18 reversed-phase column and analyzed using a Waters 2695 gradient HPLC separation module equipped with a 996 photodiode-array (PDA) UV/visible absorbance detector (Milford, Mass.). The solvent system consisted of a step gradient from 90% A to 50% B over 15 minutes, and the absorption spectra were recorded from 200-800 nm with the inline PDA detector. Mass spectrometry was conducted on a quadrupole ion tunnel mass spectrometer equipped with a Z-spray ESI source. Explant protein levels were determined by the Lowry method, using bovine γ-globulin as the standard protein [Lippman et al., 1993].
# Next, evaluation of anthocyanin uptake into human oral mucosa from FBR gels prepared as described in Example 1 was undertaken. For in-vivo studies, participation of human subjects was conducted in accordance with an IRB approved protocol. […] For the phamacokinetic analyses, nine consenting adult volunteers dried the anterior floor of their mouth, placed 1.0 g of 5% berry gel (pH 6.5), and massaged the gel in place for 30 seconds to facilitate uptake. Two minutes after gel application saliva was collected for the next three minutes. Peripheral blood was drawn five minutes after gel application. Following clotting, sera samples were collected, and both the sera and saliva samples were stored at −80° C. until LC-MS analysis as described below.
# All nine participants had detectable anthocyanin levels of three anthocyanins (cyanidin 3-rutinoside, cyanidin 3-xylosylrutinoside, cyanidin 3-glucoside) in either their saliva or blood, and 4 donors had detectable levels of two anthocyanins (cyanidin 3-rutinoside and cyanidin 3-xylosylrutinoside) in their peripheral blood. Saliva from eight of the nine donors contained detectable levels of either two (cyanidin 3-rutinoside and cyanidin 3-xylosylrutinoside-4 donors) or three anthocyanins (4 donors).
"Anthocyanin uptake, Gel pH 3.5, Avg. ± SEM [1] [pmol per mg tissue]","Anthocyanin uptake, Gel pH 6.5, Avg. ± SEM [1] [pmol per mg tissue]","% change 3.5 to 6.5, Avg. ± SEM [1] [%]",% change 3.5 to 6.5 ([1]; explant sample 001) [%],"Anthocyanin uptake, Gel pH 3.5 ([1]; explant sample 001) [pmol per mg tissue]","Anthocyanin uptake, Gel pH 6.5 ([1]; explant sample 001) [pmol per mg tissue]",% change 3.5 to 6.5 ([1]; explant sample 002) [%],"Anthocyanin uptake, Gel pH 3.5 ([1]; explant sample 002) [pmol per mg tissue]","Anthocyanin uptake, Gel pH 6.5 ([1]; explant sample 002) [pmol per mg tissue]",% change 3.5 to 6.5 ([1]; explant sample 003) [%],"Anthocyanin uptake, Gel pH 3.5 ([1]; explant sample 003) [pmol per mg tissue]","Anthocyanin uptake, Gel pH 6.5 ([1]; explant sample 003) [pmol per mg tissue]",% change 3.5 to 6.5 ([1]; explant sample 004) [%],"Anthocyanin uptake, Gel pH 3.5 ([1]; explant sample 004) [pmol per mg tissue]","Anthocyanin uptake, Gel pH 6.5 ([1]; explant sample 004) [pmol per mg tissue]",% change 3.5 to 6.5 ([1]; explant sample 005) [%],"Anthocyanin uptake, Gel pH 3.5 ([1]; explant sample 005) [pmol per mg tissue]","Anthocyanin uptake, Gel pH 6.5 ([1]; explant sample 005) [pmol per mg tissue]",% change 3.5 to 6.5 ([1]; explant sample 006) [%],"Anthocyanin uptake, Gel pH 3.5 ([1]; explant sample 006) [pmol per mg tissue]",Structure (SMILES),other results
1.9,5.3,89.0,319.4,7.4,30.9,427.3,0.6,2.9,−19.7,1.8,1.4,−66.4,1.3,0.4,−61.8,0.3,0.1,330.8,2.3,"OC[C@H]1O[C@@H](Oc2cc3c(O)cc(O)cc3[o+]c2-c2ccc(O)c(O)c2)[C@H](O[C@@H]2OC[C@@H](O)[C@H](O)[C@H]2O)[C@@H](O)[C@@H]1O.[Cl-] [Cyanidin 3-sambubioside, cyanidin 3-sambubioside]","Anthocyanin uptake, Gel pH 6.5 ([1]; explant sample 006): 10.1 pmol per mg tissue; % change 3.5 to 6.5 ([1]; explant sample 007): −14.6%; Anthocyanin uptake, Gel pH 3.5 ([1]; explant sample 007): 0.4 pmol per mg tissue; Anthocyanin uptake, Gel pH 6.5 ([1]; explant sample 007): 0.4 pmol per mg tissue; Anthocyanin uptake, Gel pH 3.5 ([1]; explant sample 008): 0.0 pmol per mg tissue; Anthocyanin uptake, Gel pH 6.5 ([1]; explant sample 008): 1.9 pmol per mg tissue; % change 3.5 to 6.5 ([1]; explant sample 009): 256.9%; Anthocyanin uptake, Gel pH 3.5 ([1]; explant sample 009): 2.9 pmol per mg tissue; Anthocyanin uptake, Gel pH 6.5 ([1]; explant sample 009): 10.3 pmol per mg tissue; % change 3.5 to 6.5 ([1]; explant sample 010): −92.9%; Anthocyanin uptake, Gel pH 3.5 ([1]; explant sample 010): 2.0 pmol per mg tissue; Anthocyanin uptake, Gel pH 6.5 ([1]; explant sample 010): 0.1 pmol per mg tissue; % change 3.5 to 6.5 ([1]; explant sample 011): −100%; Anthocyanin uptake, Gel pH 3.5 ([1]; explant sample 011): 2.1 pmol per mg tissue; Anthocyanin uptake, Gel pH 6.5 ([1]; explant sample 011): 0.0 pmol per mg tissue"
29.6,50.2,85.6,131.6,128.1,296.6,36.2,13.6,18.5,−16.6,14.4,12.0,653.5,1.6,12.0,65.3,32.0,52.9,91.3,31.5,OC[C@H]1O[C@@H](Oc2cc3c(O)cc(O)cc3[o+]c2-c2ccc(O)c(O)c2)[C@H](O)[C@@H](O)[C@@H]1O [cyanidin 3-glucoside],"Anthocyanin concentration in saliva ([2]; patient 104): 11.2 pmol/mL; Anthocyanin concentration in saliva ([2]; patient 105): 9.7 pmol/mL; Anthocyanin concentration in saliva ([2]; patient 107): 19.7 pmol/mL; Anthocyanin concentration in saliva ([2]; patient 109): 22.8 pmol/mL; Anthocyanin uptake, Gel pH 6.5 ([1]; explant sample 006): 60.3 pmol per mg tissue; % change 3.5 to 6.5 ([1]; explant sample 007): 34.5%; Anthocyanin uptake, Gel pH 3.5 ([1]; explant sample 007): 17.0 pmol per mg tissue; Anthocyanin uptake, Gel pH 6.5 ([1]; explant sample 007): 22.8 pmol per mg tissue; % change 3.5 to 6.5 ([1]; explant sample 008): −40.7%; Anthocyanin uptake, Gel pH 3.5 ([1]; explant sample 008): 33.2 pmol per mg tissue; Anthocyanin uptake, Gel pH 6.5 ([1]; explant sample 008): 19.7 pmol per mg tissue; % change 3.5 to 6.5 ([1]; explant sample 009): 113.9%; Anthocyanin uptake, Gel pH 3.5 ([1]; explant sample 009): 21.2 pmol per mg tissue; Anthocyanin uptake, Gel pH 6.5 ([1]; explant sample 009): 45.3 pmol per mg tissue; % change 3.5 to 6.5 ([1]; explant sample 010): −66.9%; Anthocyanin uptake, Gel pH 3.5 ([1]; explant sample 010): 13.9 pmol per mg tissue; Anthocyanin uptake, Gel pH 6.5 ([1]; explant sample 010): 4.6 pmol per mg tissue; % change 3.5 to 6.5 ([1]; explant sample 011): −60.1%; Anthocyanin uptake, Gel pH 3.5 ([1]; explant sample 011): 18.9 pmol per mg tissue; Anthocyanin uptake, Gel pH 6.5 ([1]; explant sample 011): 7.5 pmol per mg tissue"
